pKi: −log10 of the molar value. Where only a bound is given, the exact number is not on record here.

By pKi is commonly meant −log10 of the Ki, conventionally taken in molar units. Higher therefore signals a small Ki.

For one assay, the target named is T1, Human NPY Y1 receptors (Homo sapiens, UniProt P25929).
T1 construct: expressed in transfected cells; host or cells: CHO cells (membrane protein)
T1 sequence (P25929 1-384): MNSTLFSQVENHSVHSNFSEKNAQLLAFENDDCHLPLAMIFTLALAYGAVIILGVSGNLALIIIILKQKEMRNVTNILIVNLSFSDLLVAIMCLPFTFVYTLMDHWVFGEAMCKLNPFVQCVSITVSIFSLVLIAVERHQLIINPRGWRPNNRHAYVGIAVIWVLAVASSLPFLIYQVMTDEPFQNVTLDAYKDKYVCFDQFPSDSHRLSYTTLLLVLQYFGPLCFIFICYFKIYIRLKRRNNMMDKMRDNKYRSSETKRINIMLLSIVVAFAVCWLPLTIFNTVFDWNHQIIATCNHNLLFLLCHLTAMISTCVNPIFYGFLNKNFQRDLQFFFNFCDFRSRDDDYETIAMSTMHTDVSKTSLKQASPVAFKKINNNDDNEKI
The assay is described as follows: NPY Receptor Binding Assay.
Details: not given
Consider `C[C@@H]1N/C(=N/c2ccc(CCNc3nc4ccc(F)cc4s3)cc2)SC1=O` [Example 403], for which the pKi is < 5.00.

As to `O=C1S/C(=N\c2ccc(CCNc3nc4ccc(F)cc4s3)cc2)N[C@H]1Cc1ccccc1` [Example 373], the pKi was < 5.00.

`CC(C)C[C@@H]1N/C(=N/c2ccc(CCNc3nc4ccc(Cl)cc4s3)cc2)SC1=O` [Example 383]: the pKi was < 5.00.

Turning to `COc1ccc2nc(NCCc3ccc(/N=C4/N[C@@H](C(C)C)C(=O)S4)cc3)sc2c1` [Example 346], the pKi was < 5.00.

Turning to `C[C@@H]1N/C(=N/c2ccc(CCNc3nc4ccc(S(C)(=O)=O)cc4s3)cc2)SC1=O` [Example 354], the pKi is < 5.00.

For `O=C(O)C[C@@H]1N/C(=N/c2ccc(CCNc3nc4ccc(Cl)cc4s3)cc2)SC1=O` [Example 358], the pKi is < 5.00.

As to `CSCC[C@@H]1N/C(=N/c2ccc(CCNc3nc4ccc(S(C)(=O)=O)cc4s3)cc2)SC1=O` [Example 388], the pKi was < 5.00.

On to `CC(C)[C@@H]1N/C(=N/c2ccc(CCNc3nc4ccc(S(C)(=O)=O)cc4s3)cc2)SC1=O` [Example 359], for which the pKi is < 5.00.

`O=C(O)C[C@@H]1N/C(=N/c2ccc(CCNc3nc4ccc([N+](=O)[O-])cc4s3)cc2)SC1=O` [Example 342]: the negative logarithm of the Ki (pKi) was < 5.00.

In the case of `CC(C)[C@@H]1N/C(=N/c2ccc(CCNc3nc4ccccc4s3)cc2)SC1=O` [Example 397], the pKi was < 5.00.

Regarding `COc1cccc2sc(NCCc3ccc(/N=C4/N[C@@H](C)C(=O)S4)cc3)nc12` [Example 368], the pKi was < 5.00.

`Cc1ccc2nc(NCCc3ccc(/N=C4/N[C@@H](Cc5ccccc5)C(=O)S4)cc3)sc2c1` [Example 350]: the pKi was < 5.00.

Take `O=C1S/C(=N/c2cccc(CCNc3nc4ccccc4s3)c2)N2CCC[C@@H]12` [Example 408]: the pKi was < 5.00.

For `O=C1S/C(=N/c2ccccc2CCNc2nc3ccccc3s2)N2CCC[C@@H]12` [Example 405], the pKi was < 5.00.

Regarding `Cc1ccc2nc(NCCc3ccc(/N=C4\SC(=O)[C@@H]5CCCN45)cc3)sc2c1` [Example 379], the pKi is < 5.00.

For the compound `O=C1CN/C(=N\c2ccccc2CCNc2nc3ccccc3s2)S1` [Example 412], the negative-log Ki (pKi) is < 5.00.

With `COc1cccc2sc(NCCc3ccc(/N=C4/N[C@@H](CC(C)C)C(=O)S4)cc3)nc12` [Example 364], the pKi is < 5.00.

The same assay, now with this note: Procedure A compounds, rated A/B/C.
For the compound `Fc1ccc2nc(NCCc3ccc(NC4=NCCS4)cc3)sc2c1` [Example 21], the pKi is 5.00 to 6.00.

`CS(=O)(=O)c1ccc2nc(NCCc3ccc(NC4=NCCS4)cc3)sc2c1` [Example 15] showed a pKi of 5.00 to 6.00.

For `c1ccc2sc(NCCc3ccc(N(C4=NCCS4)C4=NCCS4)cc3)nc2c1` [Example 14], the pKi is < 5.00.

With `Cc1ccc2nc(NCCc3ccc(NC4=NCCS4)cc3)sc2c1` [Example 17], the pKi was 5.00 to 6.00.

As for `COc1cccc2sc(NCCc3ccc(NC4=NCCS4)cc3)nc12` [Example 22], the pKi was 5.00 to 6.00.

The assay is the same for the next values; noted with them: Procedure B compounds, rated A/B/C.
For the compound `CCOC(=O)N1CCN=C1Nc1ccc(CCNc2nc3ccccc3s2)cc1` [Example 26], the pKi was < 5.00.

Staying with this assay, now noted: Procedure C compounds, rated A/B/C.
Consider `CCOC(=O)N1C(=O)[C@H]([C@@H](C)CC)N=C1Nc1ccc(CCNc2nc3ccccc3s2)cc1` [Example 41], for which the pKi is < 5.00.

For the compound `O=C(c1ccccc1)N1C(=O)[C@H](CC2CCCCC2)N=C1Nc1ccc(CCNc2nc3ccccc3s2)cc1` [Example 50], the pKi is < 5.00.

In the case of `CCOC(=O)N1C(=O)[C@H](C)N=C1Nc1ccc(CCNc2nc3ccccc3s2)cc1` [Example 37], the pKi was < 5.00.

Regarding `CCOC(=O)N1C(=O)[C@H](CC(=O)O)N=C1Nc1ccc(CCNc2nc3ccccc3s2)cc1` [Example 38], the pKi was < 5.00.

Still in this assay, the particulars now being: Procedure E compounds, rated A/B/C.
On to `Cc1ccc2nc(NCCc3ccc(/N=C4/NCC(c5ccccc5)S4)cc3)sc2c1` (centres unmarked) [Example 90], for which the negative-log Ki (pKi) was < 5.00.

With `CCCCC1CS/C(=N\c2ccc(CCNc3nc4ccc(C)cc4s3)cc2)N1` (centres unmarked) [Example 92], the pKi was 5.00 to 6.00.

As for `Clc1ccc2nc(NCCc3ccc(/N=C4/N[C@@H](Cc5c[nH]cn5)CS4)cc3)sc2c1` [Example 238], the negative logarithm of the Ki (pKi) is 5.00 to 6.00.

`CC1(C)CS/C(=N\c2ccc(CCNc3nc4ccccc4s3)cc2)N1` [Example 272]: the pKi is > 6.00.

Turning to `CC1CN/C(=N/c2ccc(CCNc3nc4ccc(F)cc4s3)cc2)S1` (centres unmarked) [Example 330], the pKi is < 5.00.

Take `c1ccc2sc(NCCc3ccc(NC4=NC(C5CCCCC5)CCS4)cc3)nc2c1` (centres unmarked) [Example 201]: the pKi was > 6.00.

`CS(=O)(=O)c1ccc2nc(NCCc3ccc(/N=C4/NC5(CCCC5)CS4)cc3)sc2c1` [Example 117] showed a pKi of 5.00 to 6.00.

With `CC(C)CC1CCSC(Nc2ccc(CCNc3nc4ccccc4s3)cc2)=N1` (centres unmarked) [Example 338], the pKi is > 6.00.

Take `CC1CN/C(=N/c2ccc(CCNc3nc4ccc(S(C)(=O)=O)cc4s3)cc2)S1` (centres unmarked) [Example 189]: the pKi is < 5.00.

`Cc1ccc2nc(NCCc3ccc(/N=C4/N[C@@H](C(C)C)CS4)cc3)sc2c1` [Example 93] had a pKi of 5.00 to 6.00.

With `Cc1cccc2sc(NCCc3ccc(/N=C4/NCC(C)S4)cc3)nc12` (centres unmarked) [Example 327], the pKi was < 5.00.

As to `Cc1ccc2nc(NCCc3ccc(/N=C4/N[C@H](C)CS4)cc3)sc2c1` [Example 95], the pKi is > 6.00.

As to `Cc1ccc2nc(NCCc3ccc(N=C4NCCCS4)cc3)sc2c1` [Example 205], the pKi was > 6.00.

As for `COc1cccc2sc(NCCc3ccc(/N=C4/NC(c5ccccc5)CCS4)cc3)nc12` (centres unmarked) [Example 206], the pKi was < 5.00.

In the case of `CC(C)[C@H]1CS/C(=N\c2ccc(CCNc3nc4ccc(Cl)cc4s3)cc2)N1` [Example 107], the pKi was 5.00 to 6.00.

Regarding `Brc1ccc(C2CCSC(Nc3ccc(CCNc4nc5ccccc5s4)cc3)=N2)cc1` (centres unmarked) [Example 335], the pKi is > 6.00.

As to `CC[C@@H]1CS/C(=N\c2ccc(CCNc3nc4ccc(F)cc4s3)cc2)N1` [Example 167], the pKi was > 6.00.

In the case of `CCCC1CS/C(=N\c2ccc(CCNc3nc4ccc(S(C)(=O)=O)cc4s3)cc2)N1` (centres unmarked) [Example 249], the pKi is 5.00 to 6.00.

As for `Cc1ccc2nc(NCCc3ccc(/N=C4\SC[C@@H]5CCCN45)cc3)sc2c1` [Example 89], the pKi is < 5.00.

As for `COc1ccc2nc(NCCc3ccc(/N=C4\SC5Cc6ccccc6[C@@H]5N4C4CC4)cc3)sc2c1` (some centres unmarked) [Example 79], the pKi is < 5.00.

With `c1cc(CCNc2nc3ccccc3s2)cc(/N=C2\N[C@H]3c4ccccc4CC3S2)c1` (some centres unmarked) [Example 184], the pKi is < 5.00.

As for `COc1cccc2sc(NCCc3ccc(/N=C4/N[C@H]5c6ccccc6CC5S4)cc3)nc12` (some centres unmarked) [Example 325], the pKi was < 5.00.

As to `CCCCC1CS/C(=N\c2ccc(CCNc3nc4ccc(OC)cc4s3)cc2)N1` (centres unmarked) [Example 215], the pKi is > 6.00.

As for `O=[N+]([O-])c1ccc2nc(NCCc3ccc(/N=C4/NC5(CCCC5)CS4)cc3)sc2c1` [Example 75], the pKi is 5.00 to 6.00.

On to `Fc1ccc2nc(NCCc3ccc(/N=C4/NCC(c5ccccc5)S4)cc3)sc2c1` (centres unmarked) [Example 329], for which the pKi is < 5.00.

`Cc1ccc2nc(NCCc3ccc(/N=C4/NC5(CCCC5)CS4)cc3)sc2c1` [Example 226] had a pKi of 5.00 to 6.00.

Compound `CS(=O)(=O)c1ccc2nc(NCCc3ccc(/N=C4/NC(c5ccccc5)CCS4)cc3)sc2c1` (centres unmarked) [Example 64] had a pKi of 5.00 to 6.00.

With `Clc1ccc2nc(NCCc3ccc(/N=C4/NC(c5ccccc5)CCS4)cc3)sc2c1` (centres unmarked) [Example 212], the pKi is > 6.00.

`CC1(C)CS/C(=N\c2ccc(CCNc3nc4ccc(Cl)cc4s3)cc2)N1` [Example 240] gave a pKi of 5.00 to 6.00.

Staying with this assay, now noted: Procedure G compounds, rated A/B/C.
With `CCOC(=O)c1sc(Nc2ccc(CCNc3nc4ccccc4s3)cc2)nc1C` [Example 427], the pKi is < 5.00.

In the case of `Cc1ccc(-c2csc(Nc3ccc(CCNc4nc5ccccc5s4)cc3)n2)cc1` [Example 417], the pKi is < 5.00.

For `Cc1nc(Nc2ccc(CCNc3nc4ccccc4s3)cc2)sc1C` [Example 428], the pKi is < 5.00.

For the compound `Cc1csc(Nc2ccc(CCNc3nc4ccccc4s3)cc2)n1` [Example 415], the pKi is < 5.00.

With `CC(C)(C)c1csc(Nc2ccc(CCNc3nc4ccccc4s3)cc2)n1` [Example 433], the pKi is < 5.00.

Take `Cc1nc(Nc2ccc(CCNc3nc4ccccc4s3)cc2)sc1C(=O)N(C)C` [Example 437]: the pKi was < 5.00.

For `CCOC(=O)CC(C)(C)c1csc(Nc2ccc(CCNc3nc4ccccc4s3)cc2)n1` [Example 434], the pKi is < 5.00.

For the compound `c1ccc2sc(NCCc3ccc(Nc4nccs4)cc3)nc2c1` [Example 416], the pKi is < 5.00.

Still in this assay, the particulars now being: Procedure H compounds, rated A/B/C.
For the compound `CC(O)CC1SC(Nc2ccc(CCNc3nc4ccccc4s3)cc2)=NC1=O` (centres unmarked) [Example 440], the pKi was < 5.00.

Regarding `O=C1N=C(Nc2ccc(CCNc3nc4ccccc4s3)cc2)SC1c1ccccc1` (centres unmarked) [Example 444], the pKi was < 5.00.

With `O=C1N=C(Nc2ccc(CCNc3nc4ccccc4s3)cc2)SC1c1ccccc1O` (centres unmarked) [Example 445], the pKi was < 5.00.

As for `CCC1SC(Nc2ccc(CCNc3nc4ccccc4s3)cc2)=NC1=O` (centres unmarked) [Example 443], the pKi was < 5.00.

Turning to `O=C1N=C(Nc2ccc(CCNc3nc4ccccc4s3)cc2)SC1CCO` (centres unmarked) [Example 441], the pKi was < 5.00.

Still in this assay, the particulars now being: Table 1, rated A/B/C.
Regarding `c1ccc2sc(NCCc3ccc(NC4=NC(C5CCCCC5)CCS4)cc3)nc2c1` (centres unmarked) [Example 9], the pKi is > 6.00.

With `CC(C)CC1CCSC(Nc2ccc(CCNc3nc4ccccc4s3)cc2)=N1` (centres unmarked) [Example 12], the pKi is > 6.00.
